Assays:
Assay type in all cases: cell-based, human
[1] = system: ERK phosphorylation in HPASMC; experiment: Growth factor-stimulated ERK phosphorylation in HPASMC; conditions: for ERK activation in HPASMC by growth factor: 10 ng/mL PDGF or VEGF in serum-free medium, Western blot, three experiments
[2] = system: ERK phosphorylation in HPAEC; experiment: Growth factor-stimulated ERK phosphorylation in HPAEC; conditions: for ERK activation in HPAEC by growth factor: 10 ng/mL PDGF or VEGF in serum-free medium, Western blot, three experiments
[3] = system: Akt phosphorylation in HPASMC; experiment: Growth factor-stimulated Akt phosphorylation in HPASMC; conditions: for Akt activation in HPASMC by growth factor: 10 ng/mL PDGF or VEGF in serum-free medium, Western blot, three experiments
[4] = system: Akt phosphorylation in HPAEC; experiment: Growth factor-stimulated Akt phosphorylation in HPAEC; conditions: 10 ng/mL PDGF or VEGF in serum-free medium; Western blot, three experiments
HPASMC = experiment: MTT cell viability assay; conditions: 100 μM CPP (H2O2 0.5 mM), 30-min incubation, OD 570 nm, quadruplicate

Molecule | ERK activation in HPASMC by growth factor [1] | ERK activation in HPAEC by growth factor [2] | Concentration at which the dose response of ERK activation maximized ([2]; HPAEC, increasing VEGF in serum-free medium) [ng/mL] | Akt activation in HPASMC by growth factor [3] | Akt activation in HPAEC by growth factor [4] | Concentration at which the dose response of ERK activation maximized ([1]; HPASMC, increasing PDGF in serum-free medium) [ng/mL] | ERK phosphorylation in HPASMC by EGF ([1]; 1 ng/mL EGF) | Akt phosphorylation in HPASMC by EGF ([3]; 1 ng/mL EGF) | Effect on cell viability (MTT) (HPASMC)
VEGF | no activity | strong ERK phosphorylation | 1 | no activity | failed to activate Akt | – | – | – | –
PDGF | activated | inactive | – | activated | failed to activate Akt | 1 | – | – | –
EGF: epidermal growth factor (NSDSECPLSHDGYCLHDGVCMYIEALDKYACNCVVGYIGERCQYRDLKWWELR; UniProt P01133 971-1023, looked up) | – | – | – | – | – | – | induced the phosphorylation of both ERK and Akt | induced the phosphorylation of both ERK and Akt | –
OO [Hydrogen peroxide] | – | – | – | – | – | – | – | – | statistically significant toxicity
